US9328138B2 (priority 2011, dated 2016)
pKi: −log10 of the molar value. Structures can show the parent of a compound that is named as a salt.

How the values were obtained:
[1] = biological target: T1, HCV genotype 1b (BK) NS3 modified enzyme with a R155K mutation (Hepatitis C virus genotype 1b, UniProt P26663, R1181K); test: HCV NS3 protease time-resolved fluorescence (TRF) assay, genotype 1b R155K; assay type: biochemical; settings: Ki 1b R155K
T1 construct: HCV genotype 1b (BK) NS3 modified enzyme
Experimental: (§1) The HCV NS3 protease inhibitory activity of the present compounds may be tested using assays known in the art. One such assay is HCV NS3 protease time-resolved fluorescence (TRF) assay as described below and in International Patent Application Publication No. WO2006/102087. Other examples of such assays are described in e.g., International Patent Application Publication No. WO2005/046712. The assay is performed in a final volume of 100 μl in assay buffer containing 50 mM HEPES, pH 7.5, 150 mM NaCl, 15% glycerol, 0.15% Triton X-100, 10 mM DTT, and 0.1% PEG 8000. NS3 protease is pre-incubated with various concentrations of inhibitors in DMSO for 30 minutes. The reaction is initiated by adding the TRF peptide substrate (final concentration 100 nM). NS3 mediated hydrolysis of the substrate is quenched after 1 hour at room temperature with 100 μl of 500 mM MES, pH 5.5. Product fluorescence is detected using either a VICTOR V2 or FUSION fluorophotometer (Perkin Elmer Life and Analytical Sciences) with excitation at 340 nm and emission at 615 nm with a 400 μs delay. Testing concentrations of different enzyme forms are selected to result in a signal to background ratio (S/B) of 10-30. IC50 values are derived using a standard four-parameter fit to the data. K; values are derived from IC50 values using the following formula, IC50=Ki(1+[S]/Km), Eqn (1), where [S] is the concentration of substrate peptide in the reaction and KM is the Michaelis constant. See Gallinari et al., 1999, Biochem. 38:5620-32; Gallinari et al., 1998, J. Virol. 72:6758-69; Taliani et al., 1996, Anal. Biochem. 240:60-67.
(§2) The HCV NS3 protease inhibitory activity was measured using the protease time-resolved fluorescence (TRF) assay as described below and in International Patent Application Publication No. WO 2006/102087. The assay was performed with HCV genotype 1b (BK) NS3 modified enzyme with a R155K mutation and genotype 3a (3A-1).
(§3) The assay was performed in a final volume of 50 μl in assay buffer containing 50 mM HEPES, pH 7.5, 150 mM NaCl, 15% glycerol, 0.15% TRITON X-100, 10 mM DTT, and 0.1% PEG 8000. NS3 and NS4A protease is pre-incubated with various concentrations of inhibitors in DMSO for 10 minutes. The reaction was initiated by adding the TRF peptide substrate (final concentration 25 nM) and NS3 mediated hydrolysis of the substrate proceeds for 6 hours at room temperature. Product fluorescence is detected using an Envision plate reader (Perkin Elmer) with excitation at 340 nm and emission at 615 nm with a 400 μs delay. Testing concentrations of the enzymes were selected to result in a signal to background ratio (S/B) of 5-20. IC50 values are derived using a standard four-parameter fit to the data.
(§4) NS3 and NS4A protease is pre-incubated with various concentrations of inhibitors in DMSO for 30 minutes. The reaction is initiated by adding the TRF peptide substrate (final concentration 100 nM). NS3 mediated hydrolysis of the substrate is quenched after 1 hour at room temperature with 100 μl of 500 mM MES, pH 5.5. Product fluorescence is detected using either a VICTOR V2 or FUSION fluorophotometer (Perkin Elmer Life and Analytical Sciences) with excitation at 340 nm and emission at 615 nm with a 400 μs delay. Testing concentrations of the enzymes are selected to result in a signal to background ratio (S/B) of 8-30. IC50 values are derived using a standard four-parameter fit to the data. Ki values are derived from IC50 values using the following formula, IC50=Ki(1+[S][…]), Eqn (1), where [S] is the concentration of substrate peptide in the reaction and KM is the Michaelis constant. See Gallinari et al., 1999, Biochem. 38:5620-32; Gallinari et al., 1998, J. Virol. 72:6758-69; and Taliani et al., 1996, Anal. Biochem. 240:60-67. ND means not determined.

[2] = biological target: HCV NS3 protease genotype 3a (3A-1) (Hepatitis C virus genotype 3a, UniProt Q81258); test: HCV NS3 protease time-resolved fluorescence (TRF) assay, genotype 3a; assay type: biochemical; settings: Ki 3a
Experimental: as §1, §2, §3, §4

[3] = genotype 1b (BK) NS3 R155K, single value
[4] = first of two values printed in the cell (not explained)
[5] = second of two values printed in the cell (not explained)

SMILES | pKi [1, 3] | pKi [2] | pKi [1, 4] | pKi [1, 5]
C=C[C@@H]1C[C@]1(NC(=O)[C@@H]1C[C@@H]2CN1C(=O)[C@H](C1CCCC1)NC(=O)O[C@@H]1CCC[C@H]1CC/C=C/Cc1c(nc3ccccc3c1OCc1ccccc1)O2)C(=O)NS(=O)(=O)C1(C)CC1 [Example 15, (3aR,7S,10S,12R,21E,24aS)-19-(benzyloxy)-7-cyclopentyl-N-[(1H,2S)-2-ethenyl-1-{[(1-methylcyclopropyl)sulfonyl]carbamoyl}cyclopropyl]-5,8-dioxo-1,2,3,3a,5,6,7,8,11,12,20,23,24,24a-tetradecahydro-10H-9,12-methanocyclopenta[18,19] [1,10,3,6]dioxadiazacyclononadecino[11,12-b] quinoline-10-carboxamide] | 9.09 | 7.44 |  | 
C=C[C@@H]1C[C@]1(NC(=O)[C@@H]1C[C@@H]2CN1C(=O)[C@H](C1CCCCC1)NC(=O)O[C@@H]1C[C@H]1CCCCCc1c(nc3ccccc3c1OCCCNC1CC1)O2)C(=O)NS(=O)(=O)C1(C)CC1 [Example 241, N-(3-{[(1aR,5S,8S,10R,22aR)-5-cyclohexyl-8-{[(1R,2S)-2-ethenyl-1-{[(1-methylcyclopropyl)sulfonyl]carbamoyl}cyclopropyl]carbamoyl}-3,6-dioxo-1,1a,3,4,5,6,9,10,18,19,20,21,22,22a-tetradecahydro-8H-7,10-methanocyclopropa[18,19][1,10,3,6]dioxadiazacyclononadecino[11,12-b]quinolin-17-yl]oxy}propyl)cyclopropanaminium formate] |  | 8.55 | 10.68 | 9.79
C=C[C@@H]1C[C@]1(NC(=O)[C@@H]1C[C@@H]2CN1C(=O)[C@H](C1CCCCC1)NC(=O)O[C@@H]1C[C@H]1CCCCCc1c(nc3ccccc3c1OCCCNC1CCC1)O2)C(=O)NS(=O)(=O)C1(C)CC1 [Example 242, N-(3-{[(1aR,5S,8S,10R,22aR)-5-cyclohexyl-8-{[(1R,2S)-2-ethenyl-1-{[(1-methylcyclopropyl)sulfonyl]carbamoyl}cyclopropyl]carbamoyl}-3,6-dioxo-1,1a,3,4,5,6,9,10,18,19,20,21,22,22a-tetradecahydro-8H-7,10-methanocyclopropa[18,19][1,10,3,6]dioxadiazacyclononadecino[11,12-b]quinolin-17-yl]oxy}propyl)cyclobutanaminium formate] |  | 9.03 | 10.89 | 10.14
C=C[C@@H]1C[C@]1(NC(=O)[C@@H]1C[C@@H]2CN1C(=O)[C@H](C1(C)CCCCC1)NC(=O)O[C@@H]1C[C@H]1CCCCCc1c(nc3ccccc3c1OC1CCN(C(=O)OC(C)(C)C)CC1)O2)C(=O)NS(=O)(=O)C1(C)CC1 [Example 267, tert-butyl 4-{[(1aR,5S,8S,10R,22aR)-8-{[(1R,2S)-2-ethenyl-1-{[(1-methylcyclopropyl)sulfonyl]carbamoyl}cyclopropyl]carbamoyl}-5-(1-methylcyclohexyl)-3,6-dioxo-1,1a,3,4,5,6,9,10,18,19,20,21,22,22a-tetradecahydro-8H-7,10-methanocyclopropa[18,19][1,10,3,6]dioxadiazacyclononadecino[11,12-b]quinolin-17-yl]oxy}piperidine-1-carboxylate] |  | 7.25 | 9.94 | 8.34
C=C[C@@H]1C[C@]1(NC(=O)[C@@H]1C[C@@H]2CN1C(=O)[C@H](C(C)(C)C)NC(=O)O[C@@H]1C[C@H]1CCCCCc1c(nc3ccccc3c1-c1cccnc1)O2)C(=O)NS(=O)(=O)C1(C)CC1 [Example 246, (1aR,5S,8S,10R,22aR)-5-tert-butyl-N-[(1R,2S)-2-ethenyl-1-{[(1-methylcyclopropyl)sulfonyl]carbamoyl}cyclopropyl]-3,6-dioxo-17-(pyridin-3-yl)-1,1a,3,4,5,6,9,10,18,19,20,21,22,22a-tetradecahydro-8H-7,10-methanocyclopropa[18,19][1,10,3,6]dioxadiazacyclononadecino[11,12-b]quinoline-8-carboxamide] |  | 6.67 | 8.99 | 8.94
C=C[C@@H]1C[C@]1(NC(=O)[C@@H]1C[C@@H]2CN1C(=O)[C@H](C(C)(C)C)NC(=O)O[C@@H]1C[C@H]1CCCCCc1c(nc3ccccc3c1OCCCNCCN1CCCC1=O)O2)C(=O)NS(=O)(=O)C1(C)CC1 [Example 197, (1aR,5S,8S,10R,22aR)-5-tert-butyl-N-[(1R,2S)-2-ethenyl-1-{[(1-methylcyclopropyl)sulfonyl]carbamoyl}cyclopropyl]-3,6-dioxo-17-(3-{[2-(2-oxopyrrolidin-1-yl)ethyl]amino}propoxy)-1,1a,3,4,5,7,9,10, 18,19,20,21,22,22a-tetra decahydro-8H-7,10-methanocyclopropa[18,19][1,10,3,6] dioxdiazacyclononadecino[11,12-b] quinoline-8-carboxamide] | 10.57 | 9.51 |  | 
CC[C@@H]1C[C@]1(NC(=O)[C@@H]1C[C@@H]2CN1C(=O)[C@H](C1CCCC1)NC(=O)O[C@@]1(C)CCC[C@@H]1CCCCCc1c(nc3ccccc3c1O)O2)C(=O)NS(=O)(=O)C1CC1 [Example 31, (3aS,7S,10S,12R,24aS)-7-cyclopentyl-N-{(1R,2R)-1-[(cyclopropylsulfonyl)carbamoyl]-2-ethylcyclopropyl}-19-hydroxy-3a-methyl-5,8-dioxo-1,2,3-3a,5,6,7,8,11,12,20,21,22,23,24,24a-hexadeca hydro-10H-9,12-methanocyclopenta[18,19] [1,10,3,6]dioxadiazacyclononadecino[11,12-b] quinoline-10-carboxamide] | 8.39 | 7.64 |  | 
C=C[C@@H]1C[C@]1(NC(=O)[C@@H]1C[C@@H]2CN1C(=O)[C@H](C1CCCC1)NC(=O)O[C@@H]1CCC[C@H]1CC/C=C/Cc1c(nc3ccccc3c1OCCCN1CCCC(F)(F)C1)O2)C(=O)NS(=O)(=O)C1(C)CC1 [Example 83, (3aR,7S,10S,12R,21E,24aS)-7-cyclo pentyl-19-[3-(3,3-difluoropiperidin-1-yl)propoxy]-N-[(1R,s)-2-ethenyl-1-{[(1-methylcyclopropyl)sulfonyl]carbamoyl}cyclopropyl]-5,8-dioxo-1,2,3,3a,5,6,7,8,11,12,20,23,24,24a-tetradecahydro-10H-9,12-methanocyclopenta[18,19] [1,10,3,6]dioxadiazacyclononadecino [11,12-b]quinoline-10-carboxamide] | 8.96 | 7.64 |  | 
C=C[C@@H]1C[C@]1(NC(=O)[C@@H]1C[C@@H]2CN1C(=O)[C@H](C1CCCCC1)NC(=O)O[C@@H]1C[C@H]1CCCCCc1c(nc3ccccc3c1OCCCN1CC[C@@H](O)C1)O2)C(=O)NS(=O)(=O)C1(C)CC1 [Example 169, (1aR,5S,8S,10R,22aR)-5-cyclohexyl-N-[(1R,2S)-2-ethenyl-1-{[(1-methylcyclopropyl)sulfonyl]carbamoyl}cyclopropyl]-17-{3-[(3R)-3-hydroxypyrrolidin-1-yl]propoxy}-3,6-dioxo-1,1a,3,4,5,6,9,10, 18,19,20,21,22,22a-tetradeca hydro-8H-7,10-methanocyclopropa[18,19][1,10,3,6] dioxadiazacyclononadecino[11,12-b] quinoline-8-carboxamide] | 10.38 | 9.12 |  | 
